Experimental data as given in the supplement of paper PMC10307832.

Tests used:
Assay in all cases: relative viability (nuclei count vs DMSO), 5 days (fraction); higher = more cells survive
[1] = compound: CCn1c(-c2nonc2N)nc2cnc(Oc3cccc(NC(=O)c4ccc(OCCN5CCOCC5)cc4)c3)cc21 + Nc1nc2[nH]cc(CCc3ccc(C(=O)N[C@@H](CCC(=O)O)C(=O)O)cc3)c2c(=O)[nH]1 [Pemetrexed] (partner 0.2 µM)
How it was run: (§1)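 Lung cancer cell lines were seeded in 1536-well plates and dosed by pin tool the next day, with either a single drug or a fixed anchor-drug dose combined with five library-drug doses (not always all listed) spaced in √10 steps. Five days later, one step fixed the cells and stained their nuclei (final 0.05% Triton X-100, 1% formaldehyde, 1 ug/ml Hoechst), and nuclei were counted on 4× images. Relative viability is the nuclei count in treated wells divided by the count in vehicle wells, and each value is the median of duplicate plates.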

Mirin + Bortezomib = compound: N=C1NC(=O)/C(=C/c2ccc(O)cc2)S1 [Mirin] + CC(C)C[C@H](NC(=O)[C@H](Cc1ccccc1)NC(=O)c1cnccn1)B(O)O [Bortezomib] (partner 0.002 µM)
How it was run: as §1

Mirin + Lapatinib = compound: N=C1NC(=O)/C(=C/c2ccc(O)cc2)S1 [Mirin] + CS(=O)(=O)CCNCc1ccc(-c2ccc3ncnc(Nc4ccc(OCc5cccc(F)c5)c(Cl)c4)c3c2)o1 [Lapatinib] (partner 2 µM)
How it was run: as §1

Mirin + Tozasertib = compound: N=C1NC(=O)/C(=C/c2ccc(O)cc2)S1 [Mirin] + Cc1cc(Nc2cc(N3CCN(C)CC3)nc(Sc3ccc(NC(=O)C4CC4)cc3)n2)n[nH]1 [Tozasertib] (partner 0.1 µM)
How it was run: as §1

Cell Line | relative viability ([1]; first compound 0.04 µM) | relative viability ([1]; first compound 0.1265 µM) | relative viability ([1]; first compound 0.4 µM) | relative viability ([1]; first compound 1.265 µM) | relative viability ([1]; first compound 4 µM) | relative viability (Mirin + Bortezomib; first compound 0.25 µM) | relative viability (Mirin + Bortezomib; first compound 0.7906 µM) | relative viability (Mirin + Bortezomib; first compound 2.5 µM) | relative viability (Mirin + Bortezomib; first compound 7.906 µM) | relative viability (Mirin + Bortezomib; first compound 25 µM) | relative viability (Mirin + Lapatinib; first compound 0.25 µM) | relative viability (Mirin + Lapatinib; first compound 0.7906 µM) | relative viability (Mirin + Lapatinib; first compound 2.5 µM) | relative viability (Mirin + Lapatinib; first compound 7.906 µM) | relative viability (Mirin + Lapatinib; first compound 25 µM) | relative viability (Mirin + Tozasertib; first compound 0.25 µM) | relative viability (Mirin + Tozasertib; first compound 0.7906 µM) | relative viability (Mirin + Tozasertib; first compound 2.5 µM) | relative viability (Mirin + Tozasertib; first compound 7.906 µM) | relative viability (Mirin + Tozasertib; first compound 25 µM)
NCI-H1755 | 0.46 | 0.41 | 0.439 | 0.364 | 0.355 | 0.951 | 1.03 | 0.979 | 0.873 | 1.11 | 1.03 | 0.951 | 1.05 | 1.11 | 1.18 | 0.682 | 0.587 | 0.655 | 0.462 | 0.606
NCI-H1993 | 0.649 | 0.616 | 0.526 | 0.579 | 0.526 | 1.04 | 1.12 | 1.06 | 1.02 | 0.972 | 0.856 | 0.784 | 0.887 | 0.976 | 0.81 | 0.611 | – | 0.605 | 0.52 | 0.576
NCI-H2347 | 0.438 | 0.424 | 0.399 | 0.33 | 0.371 | 0.824 | 1.02 | 1.32 | 0.639 | 1.01 | 0.915 | 0.944 | 0.981 | 0.956 | 0.966 | 0.58 | 0.457 | 0.681 | 0.587 | 0.439
NCI-H1437 | 0.324 | 0.317 | 0.297 | 0.216 | 0.201 | 0.498 | 0.436 | 0.438 | 0.41 | 0.472 | 0.912 | 0.741 | 0.776 | 0.762 | 0.394 | 0.451 | 0.407 | 0.372 | 0.343 | 0.377
NCI-H3122 | 0.217 | 0.214 | 0.183 | 0.17 | 0.202 | 1.06 | 0.985 | 0.986 | 1.1 | 1.1 | 1.04 | 1.02 | 1.05 | 1.05 | 1.18 | 0.368 | 0.337 | 0.355 | 0.382 | 0.305
NCI-H2023 | 0.231 | 0.155 | 0.214 | 0.163 | 0.153 | 1.13 | 0.807 | 1 | 1.05 | 0.926 | 1.08 | 0.301 | 0.752 | 0.876 | 0.585 | 0.343 | 0.354 | 0.38 | 0.27 | 0.188
PC-14 | 0.136 | 0.149 | 0.131 | 0.138 | 0.177 | 0.895 | 0.852 | 0.894 | 1.06 | 1.04 | 0.373 | 0.39 | 0.339 | 0.382 | 0.49 | 0.587 | 0.581 | 0.589 | 0.599 | 0.566
NCI-H1734 | 0.397 | 0.401 | 0.307 | 0.281 | 0.29 | 0.952 | 0.778 | 0.987 | 0.831 | 0.793 | 1.02 | 0.906 | 1.06 | 0.941 | 0.905 | 0.262 | 0.285 | 0.272 | 0.228 | 0.223
NCI-H1650 | 0.343 | 0.326 | 0.389 | 0.334 | 0.343 | 0.196 | 0.2 | 0.216 | 0.208 | 0.191 | 0.774 | 0.501 | 0.891 | 0.708 | 0.465 | 0.379 | 0.483 | 0.421 | 0.325 | 0.277
NCI-H647 | 0.21 | 0.16 | 0.143 | 0.122 | 0.137 | 1.24 | 0.909 | 1.04 | 0.816 | 0.444 | 1.31 | 1.09 | 1.07 | 1.1 | 0.427 | 0.23 | 0.224 | 0.185 | 0.165 | 0.165
HCC-15 | 0.229 | 0.214 | 0.217 | 0.197 | 0.205 | 1.02 | 0.928 | 1.03 | 0.893 | 0.949 | 0.874 | 0.546 | 0.9 | 0.803 | 0.79 | 0.336 | 0.344 | 0.359 | 0.202 | 0.177
NCI-H838 | 0.252 | 0.218 | 0.187 | 0.179 | 0.156 | 0.865 | 0.521 | 0.884 | 0.78 | 0.738 | 1.15 | 0.454 | 1.07 | 0.898 | 0.658 | 0.265 | 0.303 | 0.213 | 0.23 | 0.203
HOP-62 | 0.319 | 0.309 | 0.284 | 0.228 | 0.252 | 0.727 | 0.867 | 0.725 | – | 0.836 | 1.05 | 1.16 | 1.01 | – | 1.23 | 0.367 | 0.381 | 0.357 | 0.257 | 0.324
NCI-H322M | 0.714 | 0.716 | 0.617 | 0.47 | 0.559 | 1.22 | 1.29 | 1.41 | 1.42 | 1.24 | 0.569 | 0.831 | 0.929 | 0.683 | 0.705 | 0.509 | 0.524 | 0.569 | 0.447 | 0.401
NCI-H650 | 1.05 | 0.799 | 0.454 | 0.425 | 0.458 | 0.915 | – | 0.84 | – | 0.937 | 0.943 | – | 0.902 | – | 1.02 | 0.684 | 0.557 | 0.707 | – | 0.51
NCI-H661 | 0.922 | 0.994 | 0.893 | 0.74 | 0.513 | 0.696 | 0.787 | 0.836 | 0.518 | 0.527 | 0.407 | 0.567 | 0.539 | 0.442 | 0.392 | 0.351 | 0.367 | 0.344 | 0.337 | 0.327
EKVX | 0.516 | 0.371 | 0.346 | 0.359 | 0.313 | 1.05 | 0.979 | 1 | 1.03 | 1.04 | 0.213 | 0.192 | 0.23 | 0.215 | 0.256 | 0.397 | 0.323 | 0.368 | 0.322 | 0.345
